What all share (format): physicochemical
The nature of data set [1]: Water resistance of printed matter (OD residual ratio). As to conditions: ink containing the dye; printed matter soaked in purified water at 25° C. for 10 minutes. An excerpt: (§1) There were mixed together 8 parts by weight of a coloring material-containing emulsion obtained in the above item (2) or a 30% aqueous solution of a dye obtained in any one of Reference Examples 1 to 5, 10 parts by weight of trimethylglycine, 5 parts by weight of urea, 1 part by weight of sodium 2-ethylhexylsulfosuccinate and 76 parts by weight of purified water, to give an ink.
(§2) An inkjet printer cartridge (commercially available from CANON INC. under the trade name of BCI-21e) was charged with an ink, and the inkjet printer cartridge was loaded on a bubble jet printer (commercially available from CANON INC. under the model number of BJC430J). Printing was carried out on plain paper (commercially available from CANON INC. under the trade name of The Plain Paper for Inkjet Printing PB Paper) and on high-resolution coated paper (commercially available from CANON INC. under the trade name of (The High Resolution Coated Paper HR-101), and sufficiently dried. Thereafter, the following physical properties of the printed paper were evaluated. The results are shown in Table 2.
(2) Water Resistance
The printed matter on a paper sheet for plain paper copy was soaked in purified water at 25° C. for 10 minutes, and thereafter water was sufficiently removed to be air-dried. The optical density (hereinafter referred to as OD) of the same site before and after soaking was determined by using an optical density analyzer [commercially available from Macbeth Process Measurements Co., umder the trade name of reflection densitometer RD-914]. Its OD residual ratio was obtained in accordance with the following equation: [formula]

Data set [2] can be described thus: Ozone resistance of printed matter. The settings on record: ink containing the dye; printed matter exposed to 3 ppm ozone for 2 hours.
Text: as §1, §2
(4) Ozone Resistance
A printed matter on a paper sheet for plain paper copy was exposed in a gas stream having an ozone concentration of 3 ppm for 2 hours, and the color tone (L*a*b*) before and after exposure was determined by using a colorinmeter [commercially available from Nippon Denshoku Kogyo Kabushiki Kaisha under the trade name of SE2000], and indicated by ΔE.

Data set [3] is described as follows: Storage stability of ink (retention ratio of physical properties). As to conditions: ink containing the dye, stored at 60° C. for 3 months; for Retention Ratio of Physical Properties After Storage (%) Surface Tension: surface tension at 25° C.; for Retention Ratio of Physical Properties After Storage (%) Viscosity: viscosity at 25° C. As to the method:
In 10 g of toluene was dissolved 0.6 g of each dye obtained in Preparation Examples 1 to 5 or Reference Example 6 or 7, and 1.4 g of the vinyl polymer solution obtained in the above item (1) was added to the resulting mixed solution, and the mixture was sufficiently stirred to dissolve the dye.
Next, 5.21 g of a 1 N aqueous potassium hydroxide and 50 g of purified water were added to the resulting solution, and the mixture was further sufficiently stirred. After stirring, the mixture was emulsified with an ultrasonic homogenizer at 400 μA for 20 minutes. Thereafter, toluene was removed with heating under reduced pressure, and the resulting mixture was filtered with a 0.8 μm filter, to give a coloring material-containing emulsion in which the dye was contained in the vinyl polymer.
as §1
A. Storage Stability of Ink
A 100 mL bottle made of a fluorocarbon resin was charged with an ink, and the bottle was stored in the air at 60° C. for 3 months. As the physical properties, particle sizes before and after storage (determined by a particle size distribution analyzer commercially available from OtsuKa Denshi K.K. under the trade name of ELS-8000), viscosity (determined at 25° C. by a viscometer commercially available from Toki Sangyo K.K. under the trade name of VISCOMETER ELS-80L) and surface tension (determined at 25° C. by a surface tension meter commercially available from Kyowa Kaimen Kagaku K.K. under the trade name of AUTOMATIC Surface Tensiometer CBVP-Z) were examined. The retention ratio in each physical property was obtained in accordance with the following equation: [formula]

A short description of data set [4]: Light fastness of printed matter (OD residual ratio). The settings on record: ink containing the dye; printed matter irradiated at 10000 kJ/m^2, xenon fade meter.
Text: as §1, §2
(3) Light Fastness
A printed matter of the PB Paper (commercially available from CANON INC.) was irradiated at 10000 kJ/m^2 with a xenon fade meter (commercially available from Suga Shikenki K.K. under the trade name of Low-temperature cycle-xenon-long life-fade meter). The optical density (OD) of the same site before and after irradiation was determined by using the same optical density analyzer as above. Its OD residual ratio was obtained in accordance with the following equation: [formula]

Data set [5] in a line: Solvent solubility of dye. Details: key: ◯: Dye not being dissolved; x: Dye being dissolved. The settings on record: 20° C. How it is done: Twenty parts by weight of a dye was added to 100 parts by weight of a solvent shown in Table 1, and whether or not the dye is dissolved in the solvent at 20° C. was observed. The evaluation was made on the basis of the following evaluation criteria:
x: Dye not being dissolved

Data set [6] in a line: Water resistance, alkali resistance and acid resistance of dye on plain paper. Set-up: key: ◯: Dye not being dissolved; x: Dye being dissolved. How it is done: A. Water Resistance, Alkali Resistance and Acid Resistance
In 10 ml of tetrahydrofuran was dissolved 0.1 g of a dye. A paper sheet for plain paper copy [commercially available from XEROX CO., LTD. under the trade name of XEROX 4024] was immersed in the solution for 10 minutes, and thereafter taken out therefrom to be air-dried at 25° C. for 24 hours. After drying, the paper was immersed in water (water resistance), a 1 N-aqueous sodium bydroxide (alkali resistance), or a 1 N-aqueous hydrochloric acid (acid resistance) for 10 minutes to examine whether or not the dye is dissolved in each solvent. The evaluation was made on the basis of the following evaluation criteria:
◯: Dye not being dissolved

On to `CCCCN(CCCC)C(=O)C1=NN(c2ccc(S(=O)(=O)N(CCCC)CCCC)cc2)C(=O)C1N=Nc1ccc(S(=O)(=O)N(CCCC)CCCC)cc1` (centres unmarked) [Oil-Soluble Dye IB], for which the “Water Resistance [OD Residual Ratio (%)]” value in data set [1] came to 100%. For the same compound, the “Ozone Resistance (ΔE)” value in data set [2] is listed as 0. Further, in data set [3], the “Retention Ratio of Physical Properties After Storage (%) Particle Size” value (“Retention Ratio … (%) Particle Size” below) is 98.4%, the “Retention Ratio of Physical Properties After Storage (%) Surface Tension” value (“Retention Ratio … (%) Surface Tension” for short) is given as 97.3% and the “Retention Ratio of Physical Properties After Storage (%) Viscosity” value (“Retention Ratio … (%) Viscosity” below) came to 95%. Further, the “Light Fastness [OD Residual Ratio (%)]” value in data set [4] came out at 98%.
On to C.I. Direct Yellow 86 [Dye d], for which the “Water Resistance [OD Residual Ratio (%)]” value in data set [1] amounted to 56%. For the same compound, in data set [2], the “Ozone Resistance (ΔE)” value is 10. In data set [3], the “Retention Ratio … (%) Surface Tension” value is recorded as 93.9% and the “Retention Ratio … (%) Viscosity” value came out at 92%. For the same compound, the “Light Fastness [OD Residual Ratio (%)]” value in data set [4] is 86%.
The matching figures for C.I. Acid Yellow 17 [Dye c]: 42%, 3, 98.6%, 105% and 93%.
In the same order, the values of C.I. Acid Red 289 [Dye a] are 84%, 4, 99.7%, 105% and 73%.
In the same order, the values of C.I. Direct Yellow 132 [Dye e] are 35%, 0, 101.2%, 105% and 82%.
Turning to `CCCCCCN(CCCCCC)S(=O)(=O)c1ccc(N=NC2C(=O)N(c3cc(Cl)c(S(=O)(=O)N(CCCCCC)CCCCCC)cc3Cl)N=C2C)cc1` (centres unmarked) [Oil-Soluble Dye IC], the “Water Resistance [OD Residual Ratio (%)]” value in data set [1] amounted to 100%. Further, the “Ozone Resistance (ΔE)” value in data set [2] worked out at 0. In data set [3], the “Retention Ratio … (%) Particle Size” value came to 99.4%, the “Retention Ratio … (%) Surface Tension” value is listed as 98.5% and the “Retention Ratio … (%) Viscosity” value is on record as 100%. In addition, the “Light Fastness [OD Residual Ratio (%)]” value in data set [4] turned out to be 100%.
As to `CCCCN(CCCC)S(=O)(=O)c1cccc(N=Nc2ccc(NC(=O)Nc3ccc(N=Nc4cccc(S(=O)(=O)N(CCCC)CCCC)c4)cc3OC)c(OC)c2)c1` [Oil-Soluble Dye ID], the “Water Resistance [OD Residual Ratio (%)]” value in data set [1] came out at 100%. The “Ozone Resistance (ΔE)” value in data set [2] was found to be 0. Besides, in data set [3], the “Retention Ratio … (%) Particle Size” value worked out at 101.3%, the “Retention Ratio … (%) Surface Tension” value was found to be 97.0% and the “Retention Ratio … (%) Viscosity” value is given as 96%. The “Light Fastness [OD Residual Ratio (%)]” value in data set [4] was determined as 94%.
As for C.I. Acid Yellow 23 [Dye b], the “Water Resistance [OD Residual Ratio (%)]” value in data set [1] turned out to be 40%. Further, the “Ozone Resistance (ΔE)” value in data set [2] is 5. In data set [3], the “Retention Ratio … (%) Surface Tension” value came to 96.6% and the “Retention Ratio … (%) Viscosity” value is given as 96%. The “Light Fastness [OD Residual Ratio (%)]” value in data set [4] is recorded as 87%.
Take C.I. Solvent Red 49 [Dye l]: in data set [5] (20 parts by weight dye in 100 parts by weight 2-butanone), the “Solvent Solubility 2-Butanone” value is on record as “◯”. The “Solvent Solubility Ethanol” value in data set [5] (20 parts by weight dye in 100 parts by weight ethanol) is recorded as “◯”. In addition, the “Solvent Solubility Tetrahydrofuran” value in data set [5] (20 parts by weight dye in 100 parts by weight tetrahydrofuran) is “◯”. Moreover, the “Solvent Solubility Toluene” value in data set [5] (20 parts by weight dye in 100 parts by weight toluene) is on record as “◯”. Besides, the “Water Resistance [OD Residual Ratio (%)]” value in data set [1] was determined as 100%. The “Ozone Resistance (ΔE)” value in data set [2] is 8. In addition, in data set [3], the “Retention Ratio … (%) Particle Size” value is listed as 93%, the “Retention Ratio … (%) Surface Tension” value was determined as 97.9% and the “Retention Ratio … (%) Viscosity” value was determined as 91%. Further, the “Acid Resistance” value in data set [6] (dyed plain paper immersed in 1 N aqueous hydrochloric acid for 10 minutes) is listed as “◯”. In data set [6] (dyed plain paper immersed in 1 N aqueous sodium hydroxide for 10 minutes), the “Alkali Resistance” value was “◯”. The “Water Resistance” value in data set [6] (dyed plain paper immersed in water for 10 minutes) was “◯”. Besides, in data set [4], the “Light Fastness [OD Residual Ratio (%)]” value was found to be 45%.

The values are drawn from patent US6730780B2, “Water-based ink” (Kao Corporation, priority 2000, dated 2004).
